We go through 2 compounds from ChEMBL document CHEMBL1148227, “Biosynthesis of vitamin B6: direct identification of the product of the PdxA-catalyzed oxidation of 4-hydroxy-l-threonine-4-phosphate using electrospray ionization mass spectrometry” (Bioorg Med Chem Lett, 2004).

What all share (type): ADME
What all share (conditions): buffer

The nature of series [1]: Half life at pH 5.9.
A short description of series [2]: Half life at pH 8.1.
Series [3] in a line: Half life at pH 7.8.

One may read the half-life as the time needed for the level to fall by half in the phase considered. Low values mean fast loss, high ones slow loss. For the compound `CC(=O)C(N)C(=O)O` (stereo not drawn), the half-life in series [1] is 8.57 min; in series [2], 15.2 min.

`NC(C(=O)O)C(=O)COP(=O)(O)O` (stereo not drawn): the half-life in series [3] came out at 10 min.
